# Test results from US9005905B2, “Method of identifying transmembrane protein-interacting compounds” (Omeros Corporation, priority 2002, dated 2015).
# Where two headings read alike, the source gives them in different places.
# What was measured:
# D2-NLS-GFP = molecular target: T1, D2-NLS-GFP (Homo sapiens, UniProt P14416, E432K/I431K/K435R/R434K); assay: D2-NLS-GFP translocation, HEK cells; assay type: cell-based
# T1 construct: expressed in transfected cells; host or cells: HEK cells
# Experimental: At 6, 22, 30 and 42 hours after transfection, the cells were treated with the antagonists. Cells were incubated 48 hrs after drug treatment and examined by confocal microscopy.
# 5HT1B-NLS-GFP = molecular target: T2, 5HT1B-NLS-GFP (Homo sapiens, UniProt P28222, D375K/E374K/Q378R); assay: 5HT1B-NLS-GFP translocation, HEK cells; assay type: cell-based; settings: 10 micromolar, 48 hours
# T2 construct: expressed in transfected cells; host or cells: HEK cells
# Experimental: HEK cells were transfected with a DNA construct encoding the serotonin 5HT1B-NLS-GFP (2 micrograms). The cells were transfected with Ds-red-NUC to verify the localisation of the nucleus (1 microgram). Cells were treated with methysergide (10 micromolar), a serotonin receptor antagonist. […] Control cells received no antagonist. The cells were examined by confocal microscopy.
# DAT-NLS-GFP = DAT-NLS-GFP (Homo sapiens, UniProt Q01959, C581K/S582R/Y578K); assay: DAT-NLS-GFP translocation, HEK cells; assay type: cell-based; settings: 1 micromolar, 48 hours
# Experimental: HEK cells were transfected with a DNA construct encoding DAT-NLS-GFP (2 micrograms) and incubated for 48 hours. […] The cells were examined by confocal microscopy.
# HEK cells were transfected with a construct encoding DAT-NLS-GFP (2 micrograms) and incubated for 48 hours. […] The cells were examined by confocal microscopy.
# Control HEK cells were transfected with DAT-NLS-GFP incubated for 48 hours and not treated with drug.
# Cys-LT2-NLS-GFP = molecular target: T3, Cys-LT2-NLS-GFP (Homo sapiens, UniProt Q9NS75, D314R/E310K/N311K); assay: Cys-LT2-NLS-GFP translocation, HEK cells; assay type: cell-based; settings: 10 micromolar
# T3 construct: expressed in transfected cells; host or cells: HEK cells
# T3 sequence (Q9NS75 1-346 E310K/N311K/D314R): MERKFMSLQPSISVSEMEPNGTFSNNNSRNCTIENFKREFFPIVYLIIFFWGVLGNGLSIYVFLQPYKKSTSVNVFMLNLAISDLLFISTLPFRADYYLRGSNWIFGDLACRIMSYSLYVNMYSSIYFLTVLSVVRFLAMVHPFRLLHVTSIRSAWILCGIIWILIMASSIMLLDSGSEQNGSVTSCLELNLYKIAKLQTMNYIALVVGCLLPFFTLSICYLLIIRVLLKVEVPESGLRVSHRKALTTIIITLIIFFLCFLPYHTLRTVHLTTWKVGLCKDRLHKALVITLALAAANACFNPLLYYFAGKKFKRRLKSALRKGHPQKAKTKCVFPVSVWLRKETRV
# Experimental: The DNA encoding Cys-LT2-NLS-GFP (3 micrograms) was used to transfect HEK cells. These cells were treated with the cysteinyl leukotriene receptor antagonist, montelukast (10 micromolar). […] Control cells received no antagonist. The cells were examined by confocal microscopy.
# DAT-NLS-RFP = molecular target: T4, DAT-NLS-RFP (Homo sapiens, UniProt Q01959, C581K/S582R/Y578K); assay: DAT-NLS-RFP trafficking to the nucleus, HEK cells; assay type: cell-based; settings: 10 micromolar, 48 hours
# T4 construct: The full length cDNA encoding the human dopamine transporter (hDAT) was amplified using DAT in pcDNA3 as template; expressed in transfected cells; host or cells: HEK cells
# Experimental: HEK cells were transfected with a DNA construct encoding DAT-NLS-RFP (2 micrograms) and incubated for 48 hours. At 6, 22, 30 and 42 hours after transfection, the cells were treated with cocaine or amphetamine (final concentration 10 micromolar), or left untreated. The cells were examined by confocal microscopy.
# M1-NLS-GFP = M1-NLS-GFP (Homo sapiens, UniProt P11229, A424K/D427R/R426K); settings: 10 micromolar, 48 hours
# Experimental: These cells were treated with iprotropium bromide (10 micromolar). The medium containing antagonist was replaced at 6, 22, 30 and 42 hours after transfection. Control cells received no antagonist treatment. The cells were examined by confocal microscopy.
# D1-NLS-GFP [1] = molecular target: T5, D1-NLS-GFP (Homo sapiens, UniProt P21728, A340R/D336K/F337K/R338F); assay: D1-NLS-GFP translocation, long-term agonist treatment, HEK cells; assay type: cell-based; settings: agonist 10 micromolar, 48 hours
# T5 construct: expressed in transfected cells; host or cells: HEK cells (HEK293T)
# Experimental: The cells were examined by confocal microscopy.
# HEK cells were transfected with a DNA construct encoding D1-NLS-GFP (1.5 micrograms of DNA), and incubated with the agonist pergolide (10 micromolar) for 48 hours. […] The cells were examined by confocal microscopy.
# Control HEK cells were transfected with a DNA construct encoding D1-NLS-GFP (1.5 micrograms of DNA) and left untreated.
# D1-IC1-NLS-GFP = molecular target: T6, D1-IC1-NLS-GFP (Homo sapiens, UniProt P21728, H53R/I49K/R50K/R52K); assay: D1-IC1-NLS-GFP trafficking, HEK cells; assay type: cell-based; settings: 1 micromolar, 48 hours
# T6 construct: expressed in transfected cells; host or cells: HEK cells
# From the text: (§1) Nuclei were visualised with DsRED-NUC (2 micrograms). The cells were examined by confocal microscopy.
# D1-2NLS-RFP = molecular target: T7, D1-2NLS-RFP (Homo sapiens, UniProt P21728, A340R/A406K/D336K/E404K/E405R/F337K/R338F); assay: D1-2NLS-RFP trafficking, HEK cells; assay type: cell-based; settings: 10 μM, 48 hours
# T7 construct: expressed in transfected cells; host or cells: HEK cells
# Experimental: By modifying the construct encoding D1-NLS-RFP, a DNA construct (D1-2NLS-RFP) was created to introduce a second NLS into the carboxyl tail of the dopamine D1 receptor by replacing the KKEEA (SEQ ID NO:171) sequence of the wild type D1 dopamine receptor with the NLS, KKKRK (SEQ ID NO:177).
# HEK cells were transfected with DNA encoding this construct (D1-2NLS-RFP), and treated at intervals with the antagonist SCH-23390 (10 μM) as previously described. […] Control cells received no antagonist.
# D1-NLS-GFP [2] = molecular target: T5, D1-NLS-GFP; assay: D1-NLS-GFP (with D1-WT) translocation, antagonist dose response, HEK cells, confocal microscopy; assay type: cell-based; settings: 48 hours
# Experimental: Test compounds were prepared in a stock solution of 1 millimolar concentration and diluted in growth medium to achieve a final concentration ranging between 10 nanomolar and 10 micromolar when added to cell plates. Fresh compound-containing medium was added to cells at 6 hours, 22 hours, 30 hours and 42 hours after transfection.
# Cells were visualised using the LSM510 Zeiss confocal laser microscope. GFP was visualised following excitation with the argon laser at 488 nm excitation wavelength and the DsRed was visualised following excitation with the helium neon laser at 543 nm wavelength for excitation. The confocal images were captured on disk and evaluated. In each experiment, multiple fields of cells (n=6-8 with 30-90 cells each) were counted and evaluated for localisation of the signal on the cell surface, in the cytoplasm and in the nucleus.
# HEK cells were transfected with DNA encoding D1-NLS-GFP (2 micrograms), and D1-WT (6 micrograms) for 48 hours. […] The medium containing antagonist was changed at 6, 22, 30 and 42 hours after transfection. Control cells received no antagonist treatment.
# D1-IC3-NLS-GFP = D1-IC3-NLS-GFP (Homo sapiens, UniProt P21728, M262K/S263K); assay: D1-IC3-NLS-GFP trafficking, HEK cells; assay type: cell-based; settings: 10 micromolar to 100 nanomolar (four concentrations), 48 hours
# From the text: as §1
# D1-NLS2-GFP = D1-NLS2-GFP (Homo sapiens, UniProt P21728, A335P/A340K/D336K/F337K/F341V/K339R/R338K); settings: 1 micromolar, 48 hrs
# From the text: Nuclei were visualised with DsRed-nuc (2 micrograms). Cells were examined by confocal microscopy.
# HA-D1-NLS = molecular target: T8, HA-D1-NLS (Homo sapiens, UniProt P21728, A340R/D336K/F337K/R338F); assay: HA-D1-NLS cell surface receptor detected by fluorometry; assay type: cell-based; settings: removal of SCH 23390 (0.5 micromolar) for the last hour, no agonist
# T8 construct: MGYPYDVPDYARTLNTSAMDGTGLVV; expressed in transfected cells; host or cells: HEK cells
# From the text: Wells in a multi-well plate were coated with poly-L-ornithine and then plated with 50,000 cells per well. […] Following this, the cells were fixed with paraformaldehyde, and cell surface receptors were detected with a rat anti-HA antibody and then a goat anti-rat antibody conjugated to FITC. The fluorescent signal was detected by fluorometry (Cytofluor).
# Wells in a multi-well plate were coated with poly-L-ornithine and then plated with 50,000 cells per well. […] Following this, the cells were fixed with paraformaldehyde, and cell surface receptors were detected with a rat anti-HA antibody and then a goat anti-rat antibody conjugated to FITC. The fluorescent signal was detected by fluorometry (Cytofluor). The results are the average of five wells per experimental condition.
# HEK cells were transfected with HA-D1-NLS in a multi-well plate were coated with poly-L-ornithine at a concentration of 50,000 cells per well. […] Following this, the cells were fixed with paraformaldehyde, and cell surface receptors were detected with a rat anti-HA antibody and then a goat anti-rat antibody conjugated to FITC. The fluorescent signal was detected by fluorometry (Cytofluor). The results are the average of five wells per experimental condition.
# [3] = molecular target: mu and delta opioid receptors (Homo sapiens, UniProt P35372+P41143); settings: cited from earlier work
# Chain of mu and delta opioid receptors (P35372 whole entry): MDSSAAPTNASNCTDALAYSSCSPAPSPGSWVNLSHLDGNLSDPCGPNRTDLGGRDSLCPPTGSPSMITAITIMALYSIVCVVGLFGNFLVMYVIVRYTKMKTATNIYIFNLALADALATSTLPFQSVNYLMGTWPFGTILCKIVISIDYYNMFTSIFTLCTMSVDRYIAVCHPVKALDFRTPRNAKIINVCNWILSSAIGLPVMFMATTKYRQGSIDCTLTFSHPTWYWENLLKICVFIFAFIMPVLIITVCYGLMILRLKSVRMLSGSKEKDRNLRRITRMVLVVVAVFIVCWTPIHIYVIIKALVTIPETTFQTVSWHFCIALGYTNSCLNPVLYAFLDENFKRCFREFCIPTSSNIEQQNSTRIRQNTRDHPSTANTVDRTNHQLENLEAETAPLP
# Chain of mu and delta opioid receptors (P41143 whole entry): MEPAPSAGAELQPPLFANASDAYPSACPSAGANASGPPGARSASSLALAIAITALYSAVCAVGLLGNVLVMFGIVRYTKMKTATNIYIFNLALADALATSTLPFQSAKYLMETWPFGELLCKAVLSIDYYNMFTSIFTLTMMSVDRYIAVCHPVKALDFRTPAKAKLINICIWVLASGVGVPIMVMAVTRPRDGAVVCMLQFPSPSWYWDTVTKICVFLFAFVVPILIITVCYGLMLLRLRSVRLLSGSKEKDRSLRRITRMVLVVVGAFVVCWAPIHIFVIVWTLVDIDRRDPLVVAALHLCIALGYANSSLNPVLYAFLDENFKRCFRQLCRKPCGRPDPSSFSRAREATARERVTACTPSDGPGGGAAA
# Chain of M1-NLS-GFP (P11229 whole entry A424K/R426K/D427R): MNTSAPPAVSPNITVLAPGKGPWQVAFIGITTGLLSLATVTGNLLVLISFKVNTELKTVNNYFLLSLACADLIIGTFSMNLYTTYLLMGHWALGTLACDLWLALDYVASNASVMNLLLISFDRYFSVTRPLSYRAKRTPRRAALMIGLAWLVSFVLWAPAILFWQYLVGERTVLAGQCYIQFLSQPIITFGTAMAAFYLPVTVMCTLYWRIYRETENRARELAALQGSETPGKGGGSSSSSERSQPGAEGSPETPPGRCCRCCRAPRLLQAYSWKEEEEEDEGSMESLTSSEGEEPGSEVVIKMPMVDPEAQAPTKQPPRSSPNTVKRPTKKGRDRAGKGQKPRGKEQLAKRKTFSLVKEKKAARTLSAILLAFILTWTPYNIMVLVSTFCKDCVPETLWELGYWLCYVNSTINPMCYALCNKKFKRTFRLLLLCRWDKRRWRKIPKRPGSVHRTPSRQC
# T4 sequence (Q01959 whole entry Y578K/C581K/S582R): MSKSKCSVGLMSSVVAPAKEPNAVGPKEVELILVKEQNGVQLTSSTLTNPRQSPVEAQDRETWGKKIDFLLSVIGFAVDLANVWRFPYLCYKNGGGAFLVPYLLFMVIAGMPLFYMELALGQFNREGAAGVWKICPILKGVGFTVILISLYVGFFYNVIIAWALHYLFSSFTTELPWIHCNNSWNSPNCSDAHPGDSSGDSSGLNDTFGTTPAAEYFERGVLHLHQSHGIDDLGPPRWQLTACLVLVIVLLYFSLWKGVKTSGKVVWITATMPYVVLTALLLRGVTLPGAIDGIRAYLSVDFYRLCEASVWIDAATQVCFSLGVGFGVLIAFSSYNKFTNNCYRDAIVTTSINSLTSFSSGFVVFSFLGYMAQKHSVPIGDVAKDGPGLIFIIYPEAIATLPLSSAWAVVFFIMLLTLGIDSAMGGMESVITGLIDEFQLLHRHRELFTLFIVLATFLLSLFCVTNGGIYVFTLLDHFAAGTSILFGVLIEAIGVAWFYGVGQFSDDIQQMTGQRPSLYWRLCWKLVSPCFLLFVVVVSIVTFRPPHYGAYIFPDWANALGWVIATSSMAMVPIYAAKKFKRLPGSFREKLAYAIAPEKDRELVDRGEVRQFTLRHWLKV
# T5 sequence (P21728 whole entry D336K/F337K/R338F/A340R): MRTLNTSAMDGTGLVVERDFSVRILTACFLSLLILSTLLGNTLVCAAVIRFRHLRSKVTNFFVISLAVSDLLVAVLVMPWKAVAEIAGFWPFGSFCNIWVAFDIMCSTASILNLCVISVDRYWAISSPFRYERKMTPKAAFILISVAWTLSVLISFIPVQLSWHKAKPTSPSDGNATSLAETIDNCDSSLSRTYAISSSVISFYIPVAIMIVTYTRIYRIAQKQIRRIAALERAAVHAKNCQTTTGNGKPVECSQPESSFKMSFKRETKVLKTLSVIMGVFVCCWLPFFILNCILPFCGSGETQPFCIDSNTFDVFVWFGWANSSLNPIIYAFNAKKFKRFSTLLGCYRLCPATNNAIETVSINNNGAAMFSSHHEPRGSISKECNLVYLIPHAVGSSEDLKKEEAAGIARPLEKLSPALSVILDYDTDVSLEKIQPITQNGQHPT
# T1 sequence (P14416 whole entry I431K/E432K/R434K/K435R): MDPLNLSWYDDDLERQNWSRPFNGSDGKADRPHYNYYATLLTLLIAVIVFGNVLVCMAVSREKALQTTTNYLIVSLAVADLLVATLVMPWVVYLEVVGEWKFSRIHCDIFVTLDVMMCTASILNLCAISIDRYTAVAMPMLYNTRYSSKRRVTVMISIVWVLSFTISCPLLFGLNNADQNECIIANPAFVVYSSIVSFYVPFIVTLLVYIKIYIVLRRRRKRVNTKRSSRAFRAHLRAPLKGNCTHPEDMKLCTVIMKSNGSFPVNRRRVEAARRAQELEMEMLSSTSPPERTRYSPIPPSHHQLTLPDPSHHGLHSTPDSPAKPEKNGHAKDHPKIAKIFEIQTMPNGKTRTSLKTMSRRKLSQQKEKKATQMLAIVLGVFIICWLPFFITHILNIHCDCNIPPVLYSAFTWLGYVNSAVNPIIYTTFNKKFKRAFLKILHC
# T6 sequence (P21728 9-446 I49K/R50K/R52K/H53R limits assumed): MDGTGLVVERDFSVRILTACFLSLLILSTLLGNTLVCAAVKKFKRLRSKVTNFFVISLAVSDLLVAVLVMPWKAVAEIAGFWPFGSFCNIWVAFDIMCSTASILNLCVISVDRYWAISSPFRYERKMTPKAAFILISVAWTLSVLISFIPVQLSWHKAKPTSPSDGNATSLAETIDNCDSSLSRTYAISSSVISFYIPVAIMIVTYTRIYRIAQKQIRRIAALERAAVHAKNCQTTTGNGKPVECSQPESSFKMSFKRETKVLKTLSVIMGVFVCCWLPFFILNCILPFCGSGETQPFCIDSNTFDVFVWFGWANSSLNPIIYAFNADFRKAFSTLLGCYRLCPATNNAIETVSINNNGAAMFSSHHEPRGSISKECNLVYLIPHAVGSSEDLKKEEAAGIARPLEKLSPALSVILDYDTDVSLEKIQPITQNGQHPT
# Chain of DAT-NLS-GFP (Q01959 whole entry Y578K/C581K/S582R): as the sequence (Q01959 whole entry Y578K/C581K/S582R) above
# T2 sequence (P28222 whole entry E374K/D375K/Q378R): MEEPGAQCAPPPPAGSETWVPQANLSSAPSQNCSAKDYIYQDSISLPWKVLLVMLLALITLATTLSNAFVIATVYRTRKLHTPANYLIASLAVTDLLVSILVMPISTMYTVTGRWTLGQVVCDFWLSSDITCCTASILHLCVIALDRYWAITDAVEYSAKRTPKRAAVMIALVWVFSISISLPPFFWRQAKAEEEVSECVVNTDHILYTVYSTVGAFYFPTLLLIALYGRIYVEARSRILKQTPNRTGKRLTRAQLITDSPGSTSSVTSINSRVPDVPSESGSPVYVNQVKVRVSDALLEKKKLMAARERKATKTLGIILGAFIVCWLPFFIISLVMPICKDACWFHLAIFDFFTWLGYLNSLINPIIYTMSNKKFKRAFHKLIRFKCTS
# T7 sequence (P21728 whole entry D336K/F337K/R338F/A340R/E404K/E405R/A406K): as the sequence (P21728 whole entry D336K/F337K/R338F/A340R) above, with E404K, E405R, A406K counted along it
# Chain of D1-IC3-NLS-GFP (P21728 9-446 M262K/S263K limits assumed): as the sequence (P21728 9-446 I49K/R50K/R52K/H53R limits assumed) above, with K41I, K42R, K44R, R45H, M254K, S255K counted along it
# Chain of D1-NLS2-GFP (P21728 9-446 A335P/D336K/F337K/R338K/K339R/A340K/F341V limits assumed): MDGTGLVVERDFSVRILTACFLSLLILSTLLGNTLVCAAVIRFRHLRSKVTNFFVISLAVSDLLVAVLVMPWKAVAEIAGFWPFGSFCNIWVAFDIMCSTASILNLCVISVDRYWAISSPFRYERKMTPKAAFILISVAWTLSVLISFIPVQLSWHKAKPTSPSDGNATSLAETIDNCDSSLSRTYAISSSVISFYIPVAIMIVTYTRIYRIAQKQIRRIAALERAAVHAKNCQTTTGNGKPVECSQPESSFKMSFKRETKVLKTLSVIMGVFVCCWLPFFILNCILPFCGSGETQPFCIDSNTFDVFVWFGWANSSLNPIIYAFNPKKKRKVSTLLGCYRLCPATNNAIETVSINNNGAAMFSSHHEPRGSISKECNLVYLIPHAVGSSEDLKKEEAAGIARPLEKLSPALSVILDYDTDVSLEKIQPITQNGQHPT
# T8 sequence (P21728 whole entry D336K/F337K/R338F/A340R): as the sequence (P21728 whole entry D336K/F337K/R338F/A340R) above
compound,measurement,setting,value
CCN1CCC[C@H]1CNC(=O)c1c(O)c(Cl)cc(Cl)c1OC [raclopride],% cells with cell surface labelling,"D2-NLS-GFP; 10 micromolar, 48 hrs",80%
same,% cells with cytoplasmic label,"D2-NLS-GFP; 10 micromolar, 48 hrs",15%
same,% cells with nuclear labelling,"D2-NLS-GFP; 10 micromolar, 48 hrs",5%
CC[C@@H](CO)NC(=O)[C@@H]1C=C2c3cccc4c3c(cn4C)C[C@H]2N(C)C1 [methysergide],% cells with cell surface localisation,5HT1B-NLS-GFP,62%
same,% cells with receptor in the nucleus,5HT1B-NLS-GFP,25%
OC1(c2ccc(Cl)cc2)c2ccccc2C2=NCCN21 (stereo not drawn) [mazindol],% cells with transporter expression in the nucleus and cytoplasm,DAT-NLS-GFP,39%
same,% cells with transporter expression on the cell surface and in cytoplasm,DAT-NLS-GFP,61%
CC(C)(O)c1ccccc1CC[C@@H](SCC1(CC(=O)O)CC1)c1cccc(/C=C/c2ccc3ccc(Cl)cc3n2)c1 [montelukast],% cells with cell surface expression of receptor,Cys-LT2-NLS-GFP,90%
same,% cells with nuclear localisation of the receptor,Cys-LT2-NLS-GFP,10%
(+)butaclamol,% cells with cell surface labelling,D2-NLS-GFP,90%
same,% cells with cytoplasmic label,D2-NLS-GFP,5%
same,% cells with nuclear labelling,D2-NLS-GFP,5%
CC(N)Cc1ccccc1 (stereo not drawn) [amphetamine],% cells with cell surface or cytoplasmic expression of DAT-NLS-RFP,DAT-NLS-RFP,34%
same,% cells with transporter expression in the nucleus and cytoplasm,DAT-NLS-RFP,66%
same,effect on the trafficking of the DAT-NLS-RFP to the nucleus,DAT-NLS-RFP,no inhibitory effect
iprotropium bromide,% cells with receptor expression in the cytoplasm only,M1-NLS-GFP,17%
same,% cells with receptor expression in the nucleus,M1-NLS-GFP,11%
same,% cells with receptor expression on the cell surface,M1-NLS-GFP,72%
"CCCN1C[C@H](CSC)C[C@@H]2c3cccc4[nH]cc(c34)C[C@H]21 [perglolide, pergolide]",% cells with receptor expression at the cell surface,D1-NLS-GFP [1],59%
COC(=O)[C@H]1[C@@H](OC(=O)c2ccccc2)C[C@@H]2CC[C@H]1N2C [cocaine],% cells with cell surface or cytoplasmic expression of DAT-NLS-RFP,DAT-NLS-RFP,75%
same,% cells with transporter expression in the nucleus and cytoplasm,DAT-NLS-RFP,25%
CN1CCc2cc(Cl)c(O)cc2[C@@H](c2ccccc2)C1 [SCH-23390],% cells with receptor in the nucleus,D1-IC1-NLS-GFP,23%
same,% cells with receptor on the cell surface or in the cytoplasm,D1-IC1-NLS-GFP,77%
same,% cells with cell surface label,D1-2NLS-RFP,51%
same,% cells with nuclear label,D1-2NLS-RFP,49%
same,% cells receptor in nucleus,D1-NLS-GFP [2]; 0.2 μM,19%
same,% cells receptor on surface,D1-NLS-GFP [2]; 0.2 μM,32%
same,% cells receptor on surface and in nucleus,D1-NLS-GFP [2]; 0.2 μM,49%
same,% cells receptor in nucleus,D1-NLS-GFP [2]; 0.5 μM,20%
same,% cells receptor on surface,D1-NLS-GFP [2]; 0.5 μM,36%
same,% cells receptor on surface and in nucleus,D1-NLS-GFP [2]; 0.5 μM,44%
same,% cells receptor in nucleus,D1-NLS-GFP [2]; 1 μM,15%
same,% cells receptor on surface,D1-NLS-GFP [2]; 1 μM,39%
same,% cells receptor on surface and in nucleus,D1-NLS-GFP [2]; 1 μM,46%
same,% cells receptor in nucleus,D1-NLS-GFP [2]; 5 μM,12%
same,% cells receptor on surface,D1-NLS-GFP [2]; 5 μM,46%
same,% cells receptor on surface and in nucleus,D1-NLS-GFP [2]; 5 μM,42%
same,% cells receptor on surface,"D1-NLS-GFP [2]; 10 μM, HEK cells",58%
same,% cells receptor on surface and in nucleus,"D1-NLS-GFP [2]; 10 μM, HEK cells",32%
same,% cells with receptor in the nucleus,D1-IC3-NLS-GFP,84%
same,% cells with receptor on the surface,D1-IC3-NLS-GFP,15%
same,% cells with receptor expression in the nucleus,D1-NLS2-GFP,22%
same,% cells with receptor on the cell surface or in cytoplasm,D1-NLS2-GFP,78%
same,loss of HA-D1-NLS receptors from the cell surface,HA-D1-NLS,33%
C[C@@H](NC(=O)[C@@H](N)Cc1ccc(O)cc1)C(=O)NCC(=O)N(C)[C@@H](Cc1ccccc1)C(=O)NCCO [DAMGO],potency at co-expressed versus individual receptors,[3],reduced potency
